Six molecules from patent US8765690B2, “Treatment of cancer with glufosfamide in patients not receiving insulin therapy” (Threshold Pharmaceuticals, Inc., priority 2007, dated 2014) can be followed below.

Assay [1] concerns gemcitabine resistant metastatic pancreatic cancer. Briefly: Phase 3 clinical trial of glufosfamide versus best supportive care, overall survival. It counts as in vivo, human. The note with it: for Actual overall survival: individual diabetic patient, named GLD given orally in combination with glufosfamide 4500 mg/m^2 over 6 hours once every 3 weeks; for relative risk for overall survival in Group 1 and Group 2 patients: glufosfamide vs BSC. The method, then:
Glufosfamide is a prodrug of an alkylating agent useful in the treatment of cancer. A multi-center, randomized, open-label phase 3 clinical trial was conducted to evaluate the safety and efficacy of glufosfamide in treating gemcitabine resistant metastatic pancreatic cancer as measured by overall survival compared to BSC (best supportive care). Three hundred and three patients were randomized to the trial: 148 patients were randomized to the glufosfamide arm (n=148, Group 1) and 155 to BSC (n=155, Group 2).
Patients in Group 1 were administered glufosfamide for up to 42 weeks. Glufosfamide was administered intravenously over 6 hours once every 3 weeks at 4500 mg/m^2 for up to 14 doses.
One-quarter of the dose was infused over 30 minutes and the remainder over the following five and one-half hours.
To assess the efficacy of glufosfamide treatment, patients in Group 1 and Group 2 were not administered any medication known to have antitumor effects other than glufosfamide, e.g., the patients were not administered any other chemotherapy or systemic cytotoxic/cytostatic agents. However, other appropriate supportive measures and concomitant medications not known to have antitumor effects, such as analgesics, antibiotics, transfusions, hematopoietic colony-stimulating factors (as therapy but not as prophylaxis), erythropoietin, and megestrol acetate for appetite stimulation were administered when appropriate.
Tumor assessment was performed at baseline and once every 6 weeks for the first 24 weeks and then once every 9 weeks. The primary efficacy indicator was the overall survival in Group 1 compared to that in Group 2.
Seven diabetic patients (Group 1A) having gemcitabine resistant pancreatic cancer were treated with glufosfamide for 2-11 cycles in combination with various glucose lowering drugs (GLDs) other than insulin (see Table 2 below). Glufosfamide was administered intravenously over 6 hours, once every 3 weeks, at 4500 mg/m^2. The GLD was administered orally, once every day or qd, […] prior to the first glufosfamide administration; except that, the GLD was administered to patient no. 6 three times daily or tid. […] Tumor assessment was performed at baseline and once every 6 weeks for the first 24 weeks and then once every 9 weeks. Efficacy outcomes were evaluated based on comparing the overall median survival in Group 1A with that in Group 2A. The median overall survival in the Group 1A patients was 418 days (95% CI; 85 days-643 days) compared to 84 days (95% CI; 45 days-102 days) for those in group 2A (FIG. 3).

In a further assay the test system is MiaPaCa-2-RFP tumor. The assay is described as follows: Surgical orthotopic implantation MiaPaCa-2-RFP pancreatic tumor model in nude mice, survival. The assay is classed as in vivo, NCr nu/nu mice. The method, then: A total of sixty male NCr nu/nu mice, 5-6 weeks old, were used in the study. Original breeding pairs were purchased from Taconic, Germantown, N.Y. Test animals were bred and maintained in a HEPA filtered environment for the experiment. Cages, food and bedding were autoclaved. The animal diets were obtained from PMI Nutrition International Inc. (Brentwood, Mo.).
RFP gene transduction of MiaPaCa-2 cells: For RFP gene transduction, 20% confluent MiaPaCa-2 cells (ATCC, Rockville, Md.) were incubated with a 1:1 precipitated mixture of retroviral supernatants of PT67 cells and RPMI 1640 for 72 h. Fresh medium was replenished at this time. MiaPaCa-2 cells were harvested by trypsin-EDTA 72 h posttransduction and subcultured at a ratio of 1:15 into selective medium that contained 200 μg/ml G418. The level of G418 was increased to 1000 μg/ml stepwise. The brightest MiaPaCa-2 cell clones expressing RFP were selected, combined, and then amplified and transferred by conventional culture methods.
Subcutaneous Xenografts: Tumor stocks were made by subcutaneously injecting MiaPaCa-2-RFP cells at a concentration of 5×10^6 cells/200 μl into the flank of nude mice. see e.g., Bouvet et al. Cancer Res., 2002, 62, 1534-40 incorporated herein by reference. The strong RFP expression of tumors grown in the subcutis of mice was confirmed before harvest. The tumor tissues harvested from s.c growth in nude mice were inspected, and any grossly necrotic or suspected necrotic or non-RFP tumor tissues were removed. Tumor tissues were subsequently cut into small fragments of approximately 2 mm^3. […]
Statistical methods used in efficacy evaluation: Tumor volumes and tumor weights were compared using the Student's t-test with an α=0.05. Metastatic frequency of all groups were analyzed with Fisher's exact test with an α=0.05. Comparison of animal survival time between each treatment group and untreated control was analyzed using the Log-rank analysis with an α=0.05.

Values joined by “and” are separate entries in the source; they are usually repeats but may differ in a detail not shown here. Identical values can stand only once. Counter-ions that a name gives are not always drawn.

In the case of `COc1ccc(Cl)cc1C(=O)NCCc1ccc(S(=O)(=O)NC(=O)NC2CCCCC2)cc1` [Glibenclamide], in assay [1], the Actual overall survival is 85 and 643.

In the case of `Cc1cnc(C(=O)NCCc2ccc(S(=O)(=O)NC(=O)NC3CCCCC3)cc2)cn1` [Glipizide], the Actual overall survival in assay [1] is recorded as 418.

On to `CN(CCOc1ccc(CC2SC(=O)NC2=O)cc1)c1ccccn1` (stereo not shown) [Rosiglitazone maleate], for which the Actual overall survival in assay [1] turned out to be 479.

`Cc1ccc(S(=O)(=O)NC(=O)NN2CC3CCCC3C2)cc1` (stereo not shown) [Gliclazide]: in assay [1], the Actual overall survival was 145 and 476+.

Regarding `CCC1=C(C)CN(C(=O)NCCc2ccc(S(=O)(=O)NC(=O)N[C@H]3CC[C@H](C)CC3)cc2)C1=O` [Glimepiride], in assay [1], the Actual overall survival came out at 54.

With `O=P(NCCCl)(NCCCl)O[C@@H]1O[C@H](CO)[C@@H](O)[C@H](O)[C@H]1O` [glufosfamide, beta-D-glucosyl-ifosfamide mustard], the median overall survival was found to be 105 days in assay [1] (Group 1 (n=148), glufosfamide 4500 mg/m^2 i.v. over 6 hours once every 3 weeks, all randomized patients); 115 days in assay [1] (Group 1 patients (n=123) not administered insulin prior to first glufosfamide administration); 418 days in assay [1] (seven diabetic Group 1 patients (Group 1A) on glufosfamide plus a glucose lowering drug other than insulin, no prior insulin); 26 days in the assay on MiaPaCa-2-RFP tumor (glufosfamide 50 mg/kg i.v. qd x 7 alone); 35 days in the assay on MiaPaCa-2-RFP tumor (glufosfamide 50 mg/kg i.v. qd x 7 in combination with glimepiride 12 mg/kg p.o. qd x 14, log rank p<0.01). Besides, the “relative risk for overall survival in Group 1 and Group 2 patients” value in assay [1] (diabetic patients receiving glucose lowering drug other than insulin, p=0.020) is listed as 0.24; in assay [1] (proportional hazards model stratified by KPS, all patients, p=0.187), 0.848; in assay [1] (patients not administered insulin prior, p=0.048), 0.761. Moreover, the “benefit from the administration of glufosfamide” value in assay [1] (patients receiving a glucose lowering drug other than insulin, compared with patients not receiving such drugs) is “more benefit”; in assay [1] (patients receiving insulin), “no benefit or less benefit”. Also, the “survival improvement compared to glufosfamide administered alone” value with MiaPaCa-2-RFP tumor (glufosfamide 50 mg/kg in combination with glimepiride 12 mg/kg, FIG. 4) is reported as “more effective in extending survival”.
